From patent US10913727B2, “Modulators of the integrated stress pathway” (Calico Life Sciences LLC, priority 2016, dated 2021)

Test system: HEK293T cells carrying the ATF4 luciferase reporter
Test: ATF4-Luc assay, in vitro model of Vanishing Cell White Matter Disease (VWMD)
Assay type: cell-based
Conditions: Homo sapiens, HEK-293T, 1 μg/mL tunicamycin, 7 hours, One Glo luminescence
In short: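 Compound at 200 nM and tunicamycin at 1 μg/mL were given together for 7 h to HEK293T cells stably transduced with an ATF4 5′-UTR-driven firefly luciferase reporter. Read-out by luminescence, reported as EC50.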

SMILES	EC50 [nM]
Cn1nc(-c2ccccc2)cc1C(=O)NC12CC(NC(=O)COc3ccc(Cl)c(F)c3)(C1)C2 [Compound 340, N-{3-[2-(4-chloro-3-fluorophenoxy)acetamido]bicyclo[1.1.1]pentan-1-yl}-1-methyl-3-phenyl-1H-pyrazole-5-carboxamide]	< 50
Cc1csc(C(=O)NC23CC(NC(=O)COc4ccc(Cl)c(F)c4)(C2)C3)c1 [Compound 875, N-{3-[2-(4-chloro-3-fluorophenoxy)acetamido]bicyclo[1.1.1]pentan-1-yl}-4-methylthiophene-2-carboxamide]	< 50
O=C(COc1ccc(Cl)c(F)c1)NC12CCC(NC(=O)c3cccc(N4CCOCC4)n3)(CC1)CC2O (stereo not drawn) [Compound 942, N-{4-[2-(4-chloro-3-fluorophenoxy)acetamido]-3-hydroxybicyclo[2.2.2]octan-1-yl}-6-(morpholin-4-yl)pyridine-2-carboxamide]	1000 to 2000
COCc1nc(C(=O)NC23CC(NC(=O)COc4ccc(Cl)c(F)c4)(C2)C3)cs1 [Compound 926, N-{3-[2-(4-chloro-3-fluorophenoxy)acetamido]bicyclo[1.1.1]pentan-1-yl}-2-(methoxymethyl)-1,3-thiazole-4-carboxamide]	50 to 250
O=C(COc1ccc(Cl)c(F)c1)NC12CC(NC(=O)c3cc(CNC(=O)C4CC4)ccn3)(C1)C2 [Compound 391, N-{3-[2-(4-chloro-3-fluorophenoxy)acetamido]bicyclo[1.1.1]pentan-1-yl}-4-{[(cyclopropanecarbonyl)amino]methyl}pyridine-2-carboxamide]	250 to 1000
Cc1onc(C(=O)NC23CC(NC(=O)COc4ccc(Cl)c(F)c4)(C2)C3)c1C [Compound 901, N-{3-[2-(4-chloro-3-fluorophenoxy)acetamido]bicyclo[1.1.1]pentan-1-yl}-4,5-dimethyl-1,2-oxazole-3-carboxamide]	> 2000
Cc1nc(C(F)(F)F)c(C(=O)NC23CC(NC(=O)COc4ccc(Cl)c(F)c4)(C2)C3)s1 [Compound 837, N-{3-[2-(4-chloro-3-fluorophenoxy)acetamido]bicyclo[1.1.1]pentan-1-yl}-2-methyl-4-(trifluoromethyl)-1,3-thiazole-5-carboxamide]	> 2000
Cc1cnc(C(=O)NC23CC(NC(=O)COc4ccc(C(F)(F)F)nc4)(C2)C3)cn1 [Compound 162, 5-methyl-N-[3-(2-{[6-(trifluoromethyl)pyridin-3-yl]oxy}acetamido)bicyclo[1.1.1]pentan-1-yl]pyrazine-2-carboxamide]	> 2000
COc1ccc(F)cc1C(=O)NC12CC(NC(=O)COc3ccc(Cl)c(F)c3)(C1)C2 [Compound 540, N-{3-[2-(4-chloro-3-fluorophenoxy)acetamido]bicyclo[1.1.1]pentan-1-yl}-5-fluoro-2-methoxybenzamide]	250 to 1000
CCc1ncc(C(=O)NC23CC(NC(=O)COc4ccc(Cl)c(F)c4)(C2)C3)o1 [Compound 290, N-{3-[2-(4-chloro-3-fluorophenoxy)acetamido]bicyclo[1.1.1]pentan-1-yl}-2-ethyl-1,3-oxazole-5-carboxamide]	50 to 250
O=C(COc1ccc(Cl)c(F)c1)NC12CC(NC(=O)c3ccccc3)(C1)C2 [Compound 198, N-{3-[2-(4-chloro-3-fluorophenoxy)acetamido]bicyclo[1.1.1]pentan-1-yl}benzamide]	50 to 250
O=C(COc1ccc(Cl)c(F)c1)NC12CC(Nc3nccn4cccc34)(C1)C2 [Compound 434, 2-(4-chloro-3-fluorophenoxy)-N-{3-[(pyrrolo[1,2-a]pyrazin-1-yl)amino]bicyclo[1.1.1]pentan-1-yl}acetamide]	250 to 1000
CCc1cc(C(=O)NC23CC(NC(=O)COc4ccc(Cl)c(F)c4)(C2)C3)[nH]n1 [Compound 275, N-{3-[2-(4-chloro-3-fluorophenoxy)acetamido]bicyclo[1.1.1]pentan-1-yl}-3-ethyl-1H-pyrazole-5-carboxamide]	50 to 250
Cc1cc2c(NC34CC(NC(=O)COc5ccc(OC(F)(F)F)cc5)(C3)C4)nccn2n1 [Compound 423, N-{3-[(2-methylpyrazolo[1,5-a]pyrazin-4-yl)amino]bicyclo[1.1.1]pentan-1-yl}-2-[4-(trifluoromethoxy)phenoxy]acetamide]	250 to 1000
Cc1ccn2c(=O)c(C(=O)NC34CC(NC(=O)COc5ccc(Cl)c(F)c5)(C3)C4)cnc2c1 [Compound 314, N-{3-[2-(4-chloro-3-fluorophenoxy)acetamido]bicyclo[1.1.1]pentan-1-yl}-8-methyl-4-oxo-4H-pyrido[1,2-a]pyrimidine-3-carboxamide]	> 2000
COc1cccc(F)c1C(=O)NC12CC(NC(=O)COc3ccc(Cl)c(F)c3)(C1)C2 [Compound 528, N-{3-[2-(4-chloro-3-fluorophenoxy)acetamido]bicyclo[1.1.1]pentan-1-yl}-2-fluoro-6-methoxybenzamide]	> 2000
O=C(COc1ccc(Cl)cc1)NC12CC(Nc3nc(-c4ccc(Cl)cc4)no3)(C1)C2 [Compound 284, 2-(4-chlorophenoxy)-N-(3-{[3-(4-chlorophenyl)-1,2,4-oxadiazol-5-yl]amino}bicyclo[1.1.1]pentan-1-yl)acetamide]	50 to 250
O=C(COc1ccc(Cl)c(F)c1)NC12CC(NC(=O)c3ccc4c(c3)OC(F)(F)O4)(C1)C2 [Compound 234, N-{3-[2-(4-chloro-3-fluorophenoxy)acetamido]bicyclo[1.1.1]pentan-1-yl}-2,2-difluoro-2H-1,3-benzodioxole-5-carboxamide]	< 50
Cc1ocnc1C(=O)NC12CC(NC(=O)COc3ccc(Cl)c(F)c3)(C1)C2 [Compound 909, N-{3-[2-(4-chloro-3-fluorophenoxy)acetamido]bicyclo[1.1.1]pentan-1-yl}-5-methyl-1,3-oxazole-4-carboxamide]	> 2000
N#Cc1ccc(C(=O)NC23CC(NC(=O)COc4ccc(Cl)c(F)c4)(C2)C3)nc1 [Compound 173, N-{3-[2-(4-chloro-3-fluorophenoxy)acetamido]bicyclo[1.1.1]pentan-1-yl}-5-cyanopyridine-2-carboxamide]	50 to 250
CN(C)CCOc1ccccc1C(=O)NC12CC(NC(=O)COc3ccc(Cl)c(F)c3)(C1)C2 [Compound 549, N-{3-[2-(4-chloro-3-fluorophenoxy)acetamido]bicyclo[1.1.1]pentan-1-yl}-2-[2-(dimethylamino)ethoxy]benzamide]	> 2000
O=C(COc1ccc(Cl)c(F)c1)NC12CC(NC(=O)c3coc4ccccc34)(C1)C2 [Compound 243, N-{3-[2-(4-chloro-3-fluorophenoxy)acetamido]bicyclo[1.1.1]pentan-1-yl}-1-benzofuran-3-carboxamide]	250 to 1000
O=C(COc1ccc(Cl)c(F)c1)NC12CC(Nc3ccnc(-c4ccc(Cl)cc4)n3)(C1)C2 [Compound 427, 2-(4-chloro-3-fluorophenoxy)-N-(3-{[2-(4-chlorophenyl)pyrimidin-4-yl]amino}bicyclo[1.1.1]pentan-1-yl)acetamide]	250 to 1000
O=C(COc1ccc(Cl)c(F)c1)NC12CCC(NC(=O)c3ccc(OC(F)(F)F)nc3)(C1)C2 [Compound 298, N-{4-[2-(4-chloro-3-fluorophenoxy)acetamido]bicyclo[2.1.1]hexan-1-yl}-6-(trifluoromethoxy)pyridine-3-carboxamide]	50 to 250
